Patent US20130022620A1, “ASSAYS AND METHODS PERTAINING TO PRE-AMYLOID INTERMEDIATES” (priority 2011, published 2013)
Positions of bridges follow the written chain, without caps; N, C: chain ends. No end group written: not given here.

What was measured:
sRAGE [1] = biological target: T1, sRAGE (Homo sapiens, UniProt Q15109); test: Tryptophan fluorescence quenching assay of sRAGE binding; settings: sRAGE added at different time points of the reaction, 1:1 molar ratio
T1 construct: the soluble extracellular domain of RAGE (sRAGE); made in house; host or cells: Sf9 insect cells (baculovirus)
T1 sequence (Q15109 23-342): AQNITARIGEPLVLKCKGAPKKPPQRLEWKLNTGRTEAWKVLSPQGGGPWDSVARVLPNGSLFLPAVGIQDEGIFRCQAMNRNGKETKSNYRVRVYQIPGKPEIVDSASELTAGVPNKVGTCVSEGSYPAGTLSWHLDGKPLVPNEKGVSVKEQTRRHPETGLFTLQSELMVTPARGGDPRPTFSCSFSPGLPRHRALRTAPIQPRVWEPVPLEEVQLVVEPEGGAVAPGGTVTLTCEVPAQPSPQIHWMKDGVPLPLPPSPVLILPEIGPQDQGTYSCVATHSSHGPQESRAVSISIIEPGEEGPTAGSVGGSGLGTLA
Text: The quenching of tryptophan fluorescence indicates binding. Fluorescence measurements were made at right angle in a […] dual path length quartz cuvette, using a Photon Technology International fluorescent spectrometer (280 nm excitation and 350 nm emission). Background fluorescence from buffer and IAPP peptides were negligible. The fluorescence quantum yield reported for each time point is an average of 20 reads over 20 seconds (2.5 nm bandwidth and 1 second integration time). Final solution conditions contained 16 mM tris HCl (pH 7.4).

sRAGE [2] = biological target: T1, sRAGE; test: Difference CD of IAPP peptides with sRAGE; assay type: binding; settings: end point of the reactions
Method: CD measurements of IAPP, sRAGE and IAPP/sRAGE reactions were taken at various incubation times. Far-UV CD experiments monitor the development of secondary structure of h-IAPP species and give insight into the conformational requirement for IAPP/RAGE-binding. All CD experiments were performed on an Applied Photophysics circular dichroism spectrophotometer by directly transferring 300 μL of peptide solution from kinetic assays into a 0.1 cm quartz cuvette a few minutes prior to data collection. The CD spectra for sRAGE and tris HCl buffer was subtracted from all RAGE/IAPP mixtures. The final far-UV CD data was collected over the range of 190 to 260 nm. Final solution conditions contained 16 mM tris HCl (pH 7.4).

[3] = Thioflavin-T kinetics and TEM of amyloid formation by IAPP peptides; assay type: physicochemical
Method: Thioflavin-T fluorescence was used to monitor the time course of h-IAPP amyloid formation in the presence and absence of sRAGE. To identify which form(s) of h-IAPP interact with RAGE, sRAGE was added to h-IAPP at various time points during the h-IAPP amyloid formation reaction. Aliquots of the reaction mixture were analyzed by adding 100 uL aliquots of the amyloid formation reaction to 96-well plates containing 8 uL of 60 uM thioflavin-T solution at various incubation times after initiation of the amyloid formation reaction. Fluorescence was measured using a Beckman Coulter DTX880 fluorescent plate reader (excitation: 445 nm and emission: 485 nm). Final solution conditions contained 16 mM tris HCl and […] thioflavin-T (pH 7.4). […] All values represent means±SEM (n=3).
Transient kinetic species of h-IAPP were characterized by TEM. TEM images confirm the presence or absence of amyloid which were indicated by thioflavin-T fluorescence. Aliquots (4 μl) were removed from the reaction mixtures monitored by thioflavin-T assays, placed on a carbon-coated 200-mesh copper grid and negatively stained with saturated uranyl acetate. The samples were imaged with a Philips CM12 transmission electron microscope at the New York University electron microscopy core facility. Final solution conditions contained 16 mM tris HCl (pH 7.4).

rat INS-1 β-cells = test: AlamarBlue cell viability assay of β-cells; assay type: cell-based
Method: Transformed rat insulinoma-1 (INS-1) β-cells (which express RAGE) are a pancreatic beta cell line commonly used for studies of h-IAPP induced toxicity. INS-1 cells were grown in RPMI 1640 supplemented with 10% fetal bovine serum (FBS), 11 mM glucose, 10 mM Hepes, 2 mM L-glutamine, 1 mM sodium pyruvate, 50 μM β-mercaptoethanol, 100 U/ml penicillin, and […] streptomycin. Cells were maintained at 37° C./5% CO2.
Cyto-toxicity was measured by AlamarBlue assay. INS-1 β-cells were seeded at a density of 30,000 cells per well in 96-well plates and cultured for 24 hours prior to stimulation with IAPP. Human and rat IAPP were dissolved and incubated in 16 mM tris HCl (pH 7.4, 25° C.) prior to cell stimulation. AlamarBlue was diluted ten-fold in culture media and cells were incubated for 5 hours at 37° C. Fluorescence (excitation 530; emission 590 nm) was measured on a Beckman Coulter DTX880 fluorescent plate reader. Values calculated were relative to those of control cells treated with buffer only. All values represent means±SEM (n=3).
Changes in cell morphology were examined by light microscopy to provide a second method of evaluating cell viability. Transformed rat INS-1 beta cells were photographed immediately prior to assessment of toxicity by Alamar blue cell viability assays. Images were taken using an Olympus BX-61 light microscope.

h-IAPP = biological target: T2, h-IAPP (Homo sapiens, UniProt P10997); settings: I26P point mutant; Fanling et al. 2010; cited from earlier work
T2 sequence (P10997 34-70 limits assumed): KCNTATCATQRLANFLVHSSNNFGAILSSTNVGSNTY

[4] = Ser-20 substitution; Cao et al. 2011; cited from earlier work

For “I26P-IAPP: I26P point mutant of h-IAPP, inhibitor of h-IAPP amyloid formation (KCNTATCATQRLANFLVHSSNNFGAPLSSTNVGSNTY-NH2; disulfide 2-7; N-terminus assumed; SMILES CC(C)C[C@H](NC(=O)[C@H](CCCNC(=N)N)NC(=O)[C@H](CCC(N)=O)NC(=O)[C@@H](NC(=O)[C@H](C)NC(=O)[C@@H]1CSSC[C@H](NC(=O)[C@@H](N)CCCCN)C(=O)N[C@@H](CC(N)=O)C(=O)N[C@@H]([C@@H](C)O)C(=O)N[C@@H](C)C(=O)N[C@@H]([C@@H](C)O)C(=O)N1)[C@@H](C)O)C(=O)N[C@@H](C)C(=O)N[C@@H](CC(N)=O)C(=O)N[C@@H](Cc1ccccc1)C(=O)N[C@@H](CC(C)C)C(=O)N[C@H](C(=O)N[C@@H](Cc1c[nH]cn1)C(=O)N[C@@H](CO)C(=O)N[C@@H](CO)C(=O)N[C@@H](CC(N)=O)C(=O)N[C@@H](CC(N)=O)C(=O)N[C@@H](Cc1ccccc1)C(=O)NCC(=O)N[C@@H](C)C(=O)N1CCC[C@H]1C(=O)N[C@@H](CC(C)C)C(=O)N[C@@H](CO)C(=O)N[C@@H](CO)C(=O)N[C@H](C(=O)N[C@@H](CC(N)=O)C(=O)N[C@H](C(=O)NCC(=O)N[C@@H](CO)C(=O)N[C@@H](CC(N)=O)C(=O)N[C@H](C(=O)N[C@@H](Cc1ccc(O)cc1)C(N)=O)[C@@H](C)O)C(C)C)[C@@H](C)O)C(C)C)”, the “binding to sRAGE (tryptophan fluorescence quenching)” value (sRAGE [1]) was “No binding was detected”, the “interaction with sRAGE (difference CD)” value (sRAGE [2]) was “does not interact” and the “amyloid formation (thioflavin-T)” value ([3]; peptide by itself) was “does not form amyloid”. The toxicity by itself (rat INS-1 β-cells; 40 uM, pH 7.4 25° C.) was “is not toxic by itself”, the “effect of the amyloid inhibitor on duration of h-IAPP toxicity” value (rat INS-1 β-cells; 1:1 mixture with 40 uM h-IAPP) was “increases the duration of toxicity” and the “inhibition of h-IAPP amyloid formation” value (h-IAPP) was “potent inhibitor of h-IAPP amyloid formation”.
In the case of “S20G-IAPP: S20G mutation of human IAPP, SEQ ID NO: 3 (KCNTATCATQRLANFLVHSGNNFGAILSSTNVGSNTY-NH2; disulfide 2-7; N-terminus assumed; SMILES CC[C@H](C)[C@H](NC(=O)[C@H](C)NC(=O)CNC(=O)[C@H](Cc1ccccc1)NC(=O)[C@H](CC(N)=O)NC(=O)[C@H](CC(N)=O)NC(=O)CNC(=O)[C@H](CO)NC(=O)[C@H](Cc1c[nH]cn1)NC(=O)[C@@H](NC(=O)[C@H](CC(C)C)NC(=O)[C@H](Cc1ccccc1)NC(=O)[C@H](CC(N)=O)NC(=O)[C@H](C)NC(=O)[C@H](CC(C)C)NC(=O)[C@H](CCCNC(=N)N)NC(=O)[C@H](CCC(N)=O)NC(=O)[C@@H](NC(=O)[C@H](C)NC(=O)[C@@H]1CSSC[C@H](NC(=O)[C@@H](N)CCCCN)C(=O)N[C@@H](CC(N)=O)C(=O)N[C@@H]([C@@H](C)O)C(=O)N[C@@H](C)C(=O)N[C@@H]([C@@H](C)O)C(=O)N1)[C@@H](C)O)C(C)C)C(=O)N[C@@H](CC(C)C)C(=O)N[C@@H](CO)C(=O)N[C@@H](CO)C(=O)N[C@H](C(=O)N[C@@H](CC(N)=O)C(=O)N[C@H](C(=O)NCC(=O)N[C@@H](CO)C(=O)N[C@@H](CC(N)=O)C(=O)N[C@H](C(=O)N[C@@H](Cc1ccc(O)cc1)C(N)=O)[C@@H](C)O)C(C)C)[C@@H](C)O; listed as Homo sapiens)”, the “lag phase and rate of amyloid formation” value [4] is listed as “abolishes the lag phase and increases the rate of amyloid formation”, the “rate of aggregation compared to wild type” value ([3]; 20 uM, pH 7.4 25° C.) is listed as “faster rate of aggregation” and the “onset and duration of toxicity compared to wild type” value (rat INS-1 β-cells; side-by-side with kinetics, 20 uM for the Ser-20 mutants) is listed as “faster onset and shorter duration of toxicity compared to wild type”.
